# Results from patent US10350235B2, “Cationic polysaccharides for delivery of phosphoinositides to cells for therapeutic purpose” (priority 2015, dated 2019).
# Legend:
# [1] = Zeta potential (Zetasizer, Smoluchowski model); format: physicochemical; settings: in mV (unit assumed)
# Method: The hydrodynamic size of the complexes was measured by dynamic light scattering (DLS). Spectra were collected by using CGS-3, (ALV, Langen, Germany). The laser power was 20 mW at the He—Ne laser line (632.8 nm). Correlograms were calculated by ALV/LSE 5003 correlator, which were collected at 90°, during 20 s for 10 times, at 25° C. The correlograms were fitted with version of the program CONTIN (provencher, 1982). Samples of complexes were each diluted to a final volume of 1 mL in DDW. Each sample was measured three times and solutions were further diluted until results were independent of dilution rate. Complexes' size is presented as average of triplicates. Samples from DLS were transferred to U-tube cuvette (DTS 1070, Malvern) for subsequent zeta potential measurements using Zetasizer (ZN-NanoSizer, Malvern, England). Each sample was measured at automatic mode, at 25° C. and the Smoluchowski model was used to calculate the zeta potential. For each sample the zeta potential value was presented as the average value of three runs, and the average value of each N/P ratio is presented as the average of triplicates.
# HEK293 cells = test: Autophagy flux (LC3-II western blot with and without bafilomycin A1); format: cell-based
# Method: Autophagy Flux was assessed using western blot by comparing of the cumulative LC3-II levels in HEK293 cells with and without autophagy inhibitor—bafilomycin A1 (vacuolar H+ ATPase inhibitor, 0.1 μM). Bafilomycin A1 inhibits autophagosomes degradation by fusion with lysosome since it prevents the lysosome acidification. LC3-II is an autophagosomal membrane protein therefore it is used as autophagy marker. HEK293 cells were seeded in a 6-well plate 24 hours before treatment in DMEM growth media. The cells were incubated with or without bafilomycin A1 and 3-Methyladenine (3-MA) in EBSS for 2 hours (3-MA, 5 mM) in 37° C. and 5% CO2. 3-MA acts as an autophagy inhibitor since it inhibits III phosphatidylinositol 3-kinases (PI-3K) which produce the endogenous PI3P. At the second hour the cells were treated with Q-starch/PI3P complexes at N/P ratio of 2 and with PI3P alone as control (final PI3P concentration in each well was 0.5 μM).
# Up-regulation of autophagy in HEK293 cells with the Q-starch/PI3P complexes was assessed by comparing the autophagy flux for the following conditions (FIG. 7): flux after 3 hours of serum starvation, flux after inhibition of the formation of endogenous PI3P by 3-MA (3-Methyladenine), flux after treatment with 3-MA and complexes at N/P ratio of 2 and flux after treatment with 3-MA and PI3P.
# [2] = Cryo-TEM imaging of complex size and geometry in solution; format: physicochemical; settings: FIG. 3; complexes at N/P ratios of 2 to 3
# Method: Complex size and geometry in solution were visualized using Cryo-TEM. TEM at cryogenic temperature (Cryo-TEM) is used for direct imaging of solutions and dispersions. Vitrified specimens are prepared on a copper grid coated with a perforated lacy carbon 300 mesh (Ted Pella Inc.). A typically 4 μl drop from the solution is applied to the grid and blotted with a filter paper to form a thin liquid film of solution. The blotted sample are immediately plunged into liquid ethane at its freezing point (−183° C.). The procedure is performed automatically in the Plunger (Lieca EM GP). The vitrified specimens are transferred into liquid nitrogen for storage. the samples are studied using a FEI Tecnai 12 G2 TEM, at 120 kV with a Gatan cryo-holder maintained at −180° C., and images are recorded on a slow scan cooled charge-coupled device CCD camera Gatan manufacturer. Images are recorded with the Digital Micrograph software package, at low dose conditions, to minimize electron beam radiation damage.
structure (smiles),measurement,setting,value
"CCCCCCCC(=O)OC[C@H](COP(=O)(O)O[C@@H]1[C@H](O)[C@H](OP(=O)(O)O)[C@@H](O)[C@H](O)[C@H]1O)OC(=O)CCCCCCC [PI3P, Phosphatidylinositol 3-phosphate diC8]",average zeta potential,"[1]; non-complexed alone (FIG. 4B): 0.5 μM PI3P, 0.45 mg/L Q-starch",−14.8±3.8
same,autophagy flux (difference in LC3-II levels with and without bafilomycin A1),"HEK293 cells; with 3-MA 5 mM in EBSS, final PI3P 0.5 μM, complexes at N/P=2",did not affect the levels of autophagy flux
"CCCCCCCCCCCCCCCC(=O)OC[C@H](COP(=O)(O)OC1[C@H](O)[C@H](OP(=O)(O)O)C(OP(=O)(O)O)[C@H](OP(=O)(O)O)[C@H]1O)OC(=O)CCCCCCCCCCCCCCC (some centres unmarked) [PIP3, phosphatidylinositol (3,4,5) trisphosphate diC16]",average zeta potential,[1]; non-complexed component alone (FIG. 1),−20.83
same,shape in cryo-TEM images,[2],shape of long filaments
"Cn1cnc(N)c2ncnc1-2 [3-MA, 3-Methyladenine]",autophagy flux (difference in LC3-II levels with and without bafilomycin A1),"HEK293 cells; 3-MA 5 mM alone, compared to serum starvation",decrease in the autophagy flux
